Assay results as given in ChEMBL document CHEMBL4706511, “Structure-based design, synthesis and bioactivity evaluation of macrocyclic inhibitors of mutant isocitrate dehydrogenase 2 (IDH2) displaying activity in acute myeloid leukemia cells” (Eur J Med Chem, 2020).
Positions count from the first letter of the chain named. Structures can show the parent of a compound that is named as a salt.

Columns and labels:
[1] = target: Isocitrate dehydrogenase [NADP], mitochondrial (Homo sapiens, UniProt P48735, R140Q); experiment: Inhibition of IDH2 R140Q mutant (unknown origin) assessed as reduction in NADPH consumption using alpha-ketoglutarate and NADPH as substrate preincubated with enzyme for 15 mins followed by substrate addition by fluorescence based assay
[2] = target: T1, Isocitrate dehydrogenase [NADP], mitochondrial (Homo sapiens, UniProt P48735); experiment: Inhibition of wild type IDH2 (unknown origin) assessed as reduction in NADPH production using sodium(D)-isocitrate and NADP as substrate preincubated with enzyme for 15 mins followed by substrate addition by fluorescence based assay
T1 sequence (P48735 whole entry): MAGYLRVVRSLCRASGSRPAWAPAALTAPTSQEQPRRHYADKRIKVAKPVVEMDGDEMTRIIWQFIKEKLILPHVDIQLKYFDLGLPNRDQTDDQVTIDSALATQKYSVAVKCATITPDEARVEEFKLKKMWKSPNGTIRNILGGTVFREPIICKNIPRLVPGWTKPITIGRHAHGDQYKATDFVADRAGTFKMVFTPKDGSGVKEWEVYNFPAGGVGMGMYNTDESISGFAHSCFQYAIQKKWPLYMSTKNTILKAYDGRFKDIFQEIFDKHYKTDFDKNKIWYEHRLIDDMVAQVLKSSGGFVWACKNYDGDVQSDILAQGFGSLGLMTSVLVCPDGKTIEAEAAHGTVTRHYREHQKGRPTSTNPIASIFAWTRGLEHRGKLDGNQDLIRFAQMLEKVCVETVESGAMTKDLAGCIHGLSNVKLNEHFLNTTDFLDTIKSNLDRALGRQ

[3] = target: Isocitrate dehydrogenase [NADP], mitochondrial (Homo sapiens, UniProt P48735, R172K); experiment: Inhibition of IDH2 R172K mutant (unknown origin) assessed as reduction in NADPH consumption using alpha-ketoglutarate and NADPH as substrate preincubated with enzyme for 15 mins followed by substrate addition by fluorescence based assay
[4] = Metabolic stability in human liver microsomes assessed as parent compound remaining at 100 ug/ml measured after 45 mins in presence of NADPH by LC-MS analysis; assay type: ADME, Microsome; conditions: at 100 µg/mL, read-out: Stabilty
[5] = Metabolic stability in human liver microsomes assessed as parent compound remaining at 100 ug/ml measured after 15 mins in presence of NADPH by LC-MS analysis; assay type: ADME, Microsome; conditions: at 100 µg/mL, read-out: Stabilty
TF-1 = experiment: Cytotoxicity aganist human TF-1 cells harboring IDH2 mutant; assay type: functional, cell-based
[6] = Metabolic stability in human liver microsomes assessed as parent compound remaining at 100 ug/ml measured after 90 mins in presence of NADPH by LC-MS analysis; assay type: ADME, Microsome; conditions: at 100 µg/mL, read-out: Stabilty
[7] = Cytotoxicity aganist human PBMC cells; assay type: cell-based
WI-38 = experiment: Cytotoxicity aganist human WI-38 cells; assay type: cell-based
[8] = test system: T2, Isocitrate dehydrogenase [NADP], mitochondrial (Homo sapiens), P48735 [R140Q]; experiment: Potency index, ratio of AG-221 IC50 to test compound IC50 for IDH2 R140Q mutant (unknown origin) assessed as reduction in NADPH consumption using alpha-ketoglutarate and NADPH as substrate preincubated with enzyme for 15 mins followed by substrate addition by fluorescence based assay
T2 sequence (whole entry): T1 sequence (P48735 whole entry) with R140Q

Isocitrate dehydrogenase [NADP], mitochondrial (Homo sapiens, UniProt P48735, R172K), sequence (P48735 40-452 R172K limits assumed): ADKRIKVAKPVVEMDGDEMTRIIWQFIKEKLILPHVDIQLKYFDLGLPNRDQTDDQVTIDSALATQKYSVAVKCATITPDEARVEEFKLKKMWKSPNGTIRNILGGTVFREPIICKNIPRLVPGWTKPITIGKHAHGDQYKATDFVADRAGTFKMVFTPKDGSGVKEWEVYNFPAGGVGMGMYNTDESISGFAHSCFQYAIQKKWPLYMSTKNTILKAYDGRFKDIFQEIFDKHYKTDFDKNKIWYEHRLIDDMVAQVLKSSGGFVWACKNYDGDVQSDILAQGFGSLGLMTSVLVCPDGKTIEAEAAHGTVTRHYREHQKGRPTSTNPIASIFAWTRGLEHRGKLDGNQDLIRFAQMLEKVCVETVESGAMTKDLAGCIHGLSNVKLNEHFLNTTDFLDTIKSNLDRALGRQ
Isocitrate dehydrogenase [NADP], mitochondrial (Homo sapiens, UniProt P48735, R140Q), sequence (P48735 40-452 R140Q limits assumed): as the sequence (P48735 40-452 R172K limits assumed) above, with R101Q, K133R counted along it

Row | Structure (SMILES) | IC50 [1] [nM] | IC50 [2] [nM] | IC50 [3] [nM] | remaining at 0.75 h, 100 ug/ml [4] [%] | remaining at 0.25 h, 100 ug/ml [5] [%] | IC50 (TF-1) [nM] | remaining at 1.5 h, 100 ug/ml [6] [%] | IC50 [7] [nM] | IC50 (WI-38) [nM] | Ratio IC50 [8]
1 | FC(F)(F)c1cccc(-c2nc3nc(n2)Nc2cc(Cl)cc(c2)C/C=C\COCCN3)n1 | 36 | > 20000 | 417 | – | – | – | – | – | – | –
2 | CC(C)(O)CNc1nc(Nc2ccnc(C(F)(F)F)c2)nc(-c2cccc(C(F)(F)F)n2)n1 [ENASIDENIB] | 35.9 | > 20000 | 269 | – | – | – | – | – | – | –
3 | FC(F)(F)c1cc2cc(c1)OCCCCCNc1nc(nc(-c3cccc(C(F)(F)F)n3)n1)N2 | 51 | > 20000 | 116 | – | – | – | – | – | – | –
4 | CC1(C)CCNc2nc(nc(-c3cccc(C(F)(F)F)n3)n2)Nc2cc(cc(C(F)(F)F)c2)CCCCO1 | 182 | > 20000 | 455 | – | – | – | – | – | – | –
5 | FC(F)(F)c1cc2cc(c1)Nc1nc(nc(-c3cccc(C(F)(F)F)n3)n1)NCCCC/C=C/C2 | 37.6 | > 20000 | 46.9 | – | – | – | – | – | – | –
6 | FC(F)(F)c1cc2cc(c1)Nc1nc(nc(-c3cccc(C(F)(F)F)n3)n1)NCCCCC/C=C/C2 | 37.6 | > 20000 | 92.7 | – | – | – | – | – | – | –
7 | Fc1cc2cc(c1)Nc1nc(nc(-c3cccc(C(F)(F)F)n3)n1)NCCOC/C=C\C2 | 29.5 | > 20000 | 688 | – | – | – | – | – | – | –
8 | FC(F)(F)c1cc2cc(c1)Nc1nc(nc(-c3cccc(C(F)(F)F)n3)n1)NCCCCCC2 [listing 1 of 2 here] | 6.1 | > 20000 | 219 | 94 | 95 | > 10000 | 85 | – | – | –
9 | FC(F)(F)c1cc2cc(c1)Nc1nc(nc(-c3cccc(C(F)(F)F)n3)n1)NCCOCCCC2 | 64.4 | > 20000 | 517 | – | – | – | – | 10000 | 10000 | –
10 | FC(F)(F)c1cc2cc(c1)OCCCCCCNc1nc(nc(-c3cccc(C(F)(F)F)n3)n1)N2 | 133 | > 20000 | 45.5 | 97 | 93 | – | 85 | – | – | –
11 | C=CCOC(C)(C)CNc1nc(Nc2ccccc2)nc(-c2cccc(C(F)(F)F)n2)n1 | 46 | > 20000 | 167 | – | – | > 10000 | – | – | – | –
12 | FC(F)(F)c1cc2cc(c1)Nc1nc(nc(-c3cccc(C(F)(F)F)n3)n1)NCCCCCC2 [listing 2 of 2 here] | – | – | – | – | – | – | – | – | – | 6
13 | CC1(C)CNc2nc(nc(-c3cccc(C(F)(F)F)n3)n2)Nc2cc(cc(C(F)(F)F)c2)C/C=C\CO1 | 396 | > 20000 | – | – | – | – | – | – | – | –
14 | CC(C)(O)CNc1nc(Nc2cccc(C(F)(F)F)c2)nc(-c2cccc(C(F)(F)F)n2)n1 | 26 | > 20000 | 119 | 81 | 86 | > 10000 | 81 | – | – | –
15 | CC1(C)CNc2nc(nc(-c3cccc(C(F)(F)F)n3)n2)Nc2cc(cc(C(F)(F)F)c2)OCCCO1 | 79.3 | > 20000 | 27.4 | – | – | – | – | – | – | –
16 | FC(F)(F)c1cc2cc(c1)OC/C=C\CCNc1nc(nc(-c3cccc(C(F)(F)F)n3)n1)N2 | 18.4 | > 20000 | 1570 | 66 | 89 | – | 64 | – | – | –
17 | FC(F)(F)c1cc2cc(c1)Nc1nc(nc(-c3cccc(C(F)(F)F)n3)n1)NCCOC/C=C\C2 | 39.9 | > 20000 | 210 | – | – | – | – | 10000 | 10000 | –
18 | FC(F)(F)c1cc2cc(c1)Nc1nc(nc(-c3cccc(C(F)(F)F)n3)n1)NCCC/C=C/C2 | 13.8 | 14100 | 17.4 | 91 | > 99 | – | 90 | – | – | 3

Row | Structure (SMILES) | IC50 [1] [nM] | IC50 [2] [nM] | IC50 [3] [nM] | remaining at 0.75 h, 100 ug/ml [4] [%] | remaining at 0.25 h, 100 ug/ml [5] [%] | IC50 (TF-1) [nM] | remaining at 1.5 h, 100 ug/ml [6] [%] | IC50 [7] [nM] | IC50 (WI-38) [nM] | Ratio IC50 [8]
19 | FC(F)(F)c1cc2cc(c1)Nc1nc(nc(-c3cccc(C(F)(F)F)n3)n1)NCC/C=C/C2 | 683 | > 20000 | > 10000 | – | – | > 10000 | – | – | – | –
20 | Cc1cc2cc(c1)Nc1nc(nc(-c3cccc(C(F)(F)F)n3)n1)NCCOC/C=C\C2 | 37.9 | > 20000 | 830 | – | – | – | – | – | – | –
21 | FC(F)(F)c1cc2cc(c1)OC/C=C\CCCNc1nc(nc(-c3cccc(C(F)(F)F)n3)n1)N2 | 17.4 | > 20000 | 50.3 | – | – | – | – | – | – | –
22 | CC(C)(O)CNc1nc(Nc2ccncc2)nc(-c2cccc(C(F)(F)F)n2)n1 | 663 | > 20000 | > 10000 | – | – | > 10000 | – | – | – | –
23 | CC(C)(O)CNc1nc(Nc2ccccc2)nc(-c2cccc(C(F)(F)F)n2)n1 | 98.2 | > 20000 | 1430 | – | – | – | – | – | – | –
24 | FC(F)(F)c1cc2cc(c1)Nc1nc(nc(-c3cccc(C(F)(F)F)n3)n1)NCCCCCCCC2 | 37.2 | > 20000 | 131 | 75 | > 99 | > 10000 | 72 | – | – | –
25 | Cc1cc2cc(c1)Nc1nc(nc(-c3cccc(C(F)(F)F)n3)n1)NCCOCCCC2 | 22.2 | > 20000 | 1320 | – | – | – | – | – | – | –
26 | FC(F)(F)c1cc2cc(c1)Nc1nc(nc(-c3cccc(C(F)(F)F)n3)n1)NCCCCCCC2 | 19.9 | > 20000 | 30.1 | – | – | – | – | – | – | –
27 | O=C1OCCCCCNc2nc(nc(-c3cccc(C(F)(F)F)n3)n2)Nc2cc1cc(C(F)(F)F)c2 | 105 | > 20000 | 314 | – | – | – | – | – | – | –
28 | Fc1cc2cc(c1)Nc1nc(nc(-c3cccc(C(F)(F)F)n3)n1)NCCOCCCC2 | 18.6 | > 20000 | 881 | – | – | – | – | – | – | –
29 | CC(C)(O)CNc1nc(Nc2ccnc(C(F)(F)F)c2)nc(-c2cccc(C(F)(F)F)n2)n1 [ENASIDENIB MESYLATE] | 124 | – | 319 | – | – | – | – | – | – | –
30 | CC1CNc2nc(nc(-c3cccc(C(F)(F)F)n3)n2)Nc2cc(cc(C(F)(F)F)c2)C/C=C\CO1 (stereo not given) | 267 | > 20000 | – | – | – | – | – | – | – | –
31 | O=C1NCCCCNc2nc(nc(-c3cccc(C(F)(F)F)n3)n2)Nc2cc1cc(C(F)(F)F)c2 | 699 | > 20000 | > 10000 | – | – | – | – | – | – | –
32 | CC1(C)CNc2nc(nc(-c3cccc(C(F)(F)F)n3)n2)Nc2cc(cc(C(F)(F)F)c2)CCCCO1 | 38.5 | > 20000 | 9.6 | – | – | – | – | 10000 | 10000 | –
33 | FC(F)(F)c1cccc(-c2nc3nc(n2)Nc2cc(Cl)cc(c2)CCCCOCCN3)n1 | 12.2 | > 20000 | 443 | – | – | – | – | – | – | –
34 | CC1CNc2nc(nc(-c3cccc(C(F)(F)F)n3)n2)Nc2cc(cc(C(F)(F)F)c2)CCCCO1 (stereo not given) | 45.6 | > 20000 | 17.7 | – | – | – | – | – | – | –
35 | C=CCOC(C)(C)CNc1nc(Nc2cccc(C(F)(F)F)c2)nc(-c2cccc(C(F)(F)F)n2)n1 | 32.8 | > 20000 | 15.5 | – | – | – | – | – | – | –
36 | FC(F)(F)c1cc2cc(c1)Nc1nc(nc(-c3cccc(C(F)(F)F)n3)n1)NCCCCC2 | 1240 | > 20000 | > 10000 | – | – | > 10000 | – | – | – | –
